Results taken from paper PMC8453901, “GLPG1205, a GPR84 Modulator: Safety, Pharmacokinetics, and Pharmacodynamics in Healthy Subjects” (Clinical Pharmacology in Drug Development, 2021).

Experiments:
CYP2C19 = test system: CYP2C19; parameters: method as in data on file at Galapagos; details: in vitro; ref data on file at Galapagos; cited from earlier work
CYP2C9 [1] = test system: CYP2C9; parameters: method as in data on file at Galapagos, 8, 9; details: 100 mg once daily, healthy male subjects; ref data on file at Galapagos, 8, 9; cited from earlier work
[2] = Safety and tolerability, study 1 SAD part; type: in vivo, human
Method: Safety and tolerability were assessed on the basis of adverse events (AEs), which were monitored throughout both studies. Additional safety assessments included vital signs (including supine [and standing in study 2] heart rate, systolic and diastolic blood pressure, and oral body temperature), 12‐lead electrocardiogram (ECG), clinical laboratory tests (hematology, coagulation [study 2 only], serum/plasma chemistry, urinalysis, urine drug screen, serology, and alcohol breath test), and a comprehensive physical examination. In the SAD part of study 1, clinical laboratory tests, physical examination, and vital signs were assessed at the screening visit, at the time of dosing (0 hours after dose), 24 hours after dosing and at follow‐up (7 to 10 days after the final dose). Vital signs were additionally observed 2 hours after dosing, and the 12‐lead ECG was additionally completed at 1, 2, 6, 8, and 12 hours after dosing. In the MAD part of study 1, all additional safety assessments were performed at screening; days 1, 2, 8, 14, and 15; and at follow‐up. In study 2, additional safety assessments were performed at screening (between 21 and 2 days before the first study drug administration); days 1, 2, 5, 10, 14, 15, and 20 (clinical laboratory tests were not performed on day 20); at early discontinuation; and at follow‐up. For study 2, renal function tests (measurement of estimated creatinine clearance rate using the Cockcroft‐Gault equation) were also included in the clinical laboratory tests for safety assessment.
In both studies, the safety analysis was descriptive and focused on changes from baseline and treatment‐emergent findings.

CYP2C9 [3] = test system: CYP2C9; parameters: method as in data on file at Galapagos; details: in vitro; ref data on file at Galapagos; cited from earlier work

O=c1nc(OC[C@@H]2COCCO2)cc2n1CCc1cc(C#CC3CC3)ccc1-2 [GLPG1205, 9‐cyclopropylethynyl‐2‐((S)‐1‐[1,4]dioxan‐2‐ylmethoxy)‐6,7‐dihydropyrimido[6,1‐a]isoquinolin‐4‐one]
inhibition of CYP2C19 (CYP2C19): weak inhibition
effect on exposure of CYP2C9 (CYP2C9 [1]): did not affect the exposure
subjects with nausea (most frequent TEAE) ([2]; SAD part, all doses): 4 subjects
Any TEAE ([2]; single 10 mg (n = 6)): 2 (33.3) number of subjects (%)
Dizziness (TEAE) ([2]; single 10 mg (n = 6)): 0 number of subjects (%)
Gastrointestinal disorders (TEAE) ([2]; single 10 mg (n = 6)): 0 number of subjects (%)
Headache (TEAE) ([2]; single 10 mg (n = 6)): 1 (16.7) number of subjects (%)
Hot flush (TEAE) ([2]; single 10 mg (n = 6)): 0 number of subjects (%)
Infections and infestations (TEAE) ([2]; single 10 mg (n = 6)): 1 (16.7) number of subjects (%)
Musculoskeletal and connective tissue disorders (TEAE) ([2]; single 10 mg (n = 6)): 0 number of subjects (%)
Nausea (TEAE) ([2]; single 10 mg (n = 6)): 0 number of subjects (%)
Nervous system disorders (TEAE) ([2]; single 10 mg (n = 6)): 1 (16.7) number of subjects (%)
Oropharyngeal pain (TEAE) ([2]; single 10 mg (n = 6)): 0 number of subjects (%)
Respiratory, thoracic, and mediastinal disorders (TEAE) ([2]; single 10 mg (n = 6)): 0 number of subjects (%)
Somnolence (TEAE) ([2]; single 10 mg (n = 6)): 0 number of subjects (%)
Torticollis (TEAE) ([2]; single 10 mg (n = 6)): 0 number of subjects (%)
Urethritis chlamydial (TEAE) ([2]; single 10 mg (n = 6)): 1 (16.7) number of subjects (%)
Vascular disorders (TEAE) ([2]; single 10 mg (n = 6)): 0 number of subjects (%)
Any TEAE ([2]; single 30 mg (n = 6)): 1 (16.7) number of subjects (%)
Dizziness (TEAE) ([2]; single 30 mg (n = 6)): 0 number of subjects (%)
Gastrointestinal disorders (TEAE) ([2]; single 30 mg (n = 6)): 0 number of subjects (%)
Headache (TEAE) ([2]; single 30 mg (n = 6)): 0 number of subjects (%)
Hot flush (TEAE) ([2]; single 30 mg (n = 6)): 0 number of subjects (%)
Infections and infestations (TEAE) ([2]; single 30 mg (n = 6)): 0 number of subjects (%)
Musculoskeletal and connective tissue disorders (TEAE) ([2]; single 30 mg (n = 6)): 0 number of subjects (%)
Nausea (TEAE) ([2]; single 30 mg (n = 6)): 0 number of subjects (%)
Nervous system disorders (TEAE) ([2]; single 30 mg (n = 6)): 1 (16.7) number of subjects (%)
Oropharyngeal pain (TEAE) ([2]; single 30 mg (n = 6)): 0 number of subjects (%)
Respiratory, thoracic, and mediastinal disorders (TEAE) ([2]; single 30 mg (n = 6)): 0 number of subjects (%)
Somnolence (TEAE) ([2]; single 30 mg (n = 6)): 1 (16.7) number of subjects (%)
Torticollis (TEAE) ([2]; single 30 mg (n = 6)): 0 number of subjects (%)
Urethritis chlamydial (TEAE) ([2]; single 30 mg (n = 6)): 0 number of subjects (%)
Vascular disorders (TEAE) ([2]; single 30 mg (n = 6)): 0 number of subjects (%)
Any TEAE ([2]; single 90 mg (n = 6)): 0 number of subjects (%)
Dizziness (TEAE) ([2]; single 90 mg (n = 6)): 0 number of subjects (%)
Gastrointestinal disorders (TEAE) ([2]; single 90 mg (n = 6)): 0 number of subjects (%)
Headache (TEAE) ([2]; single 90 mg (n = 6)): 0 number of subjects (%)
Hot flush (TEAE) ([2]; single 90 mg (n = 6)): 0 number of subjects (%)
Infections and infestations (TEAE) ([2]; single 90 mg (n = 6)): 0 number of subjects (%)
Musculoskeletal and connective tissue disorders (TEAE) ([2]; single 90 mg (n = 6)): 0 number of subjects (%)
Nausea (TEAE) ([2]; single 90 mg (n = 6)): 0 number of subjects (%)
Nervous system disorders (TEAE) ([2]; single 90 mg (n = 6)): 0 number of subjects (%)
Oropharyngeal pain (TEAE) ([2]; single 90 mg (n = 6)): 0 number of subjects (%)
Respiratory, thoracic, and mediastinal disorders (TEAE) ([2]; single 90 mg (n = 6)): 0 number of subjects (%)
Somnolence (TEAE) ([2]; single 90 mg (n = 6)): 0 number of subjects (%)
Torticollis (TEAE) ([2]; single 90 mg (n = 6)): 0 number of subjects (%)
Urethritis chlamydial (TEAE) ([2]; single 90 mg (n = 6)): 0 number of subjects (%)
Vascular disorders (TEAE) ([2]; single 90 mg (n = 6)): 0 number of subjects (%)
Any TEAE ([2]; single 200 mg (n = 6)): 1 (16.7) number of subjects (%)
Dizziness (TEAE) ([2]; single 200 mg (n = 6)): 0 number of subjects (%)
Gastrointestinal disorders (TEAE) ([2]; single 200 mg (n = 6)): 1 (16.7) number of subjects (%)
Headache (TEAE) ([2]; single 200 mg (n = 6)): 0 number of subjects (%)
Hot flush (TEAE) ([2]; single 200 mg (n = 6)): 0 number of subjects (%)
Infections and infestations (TEAE) ([2]; single 200 mg (n = 6)): 0 number of subjects (%)
Musculoskeletal and connective tissue disorders (TEAE) ([2]; single 200 mg (n = 6)): 0 number of subjects (%)
Nausea (TEAE) ([2]; single 200 mg (n = 6)): 1 (16.7) number of subjects (%)
Nervous system disorders (TEAE) ([2]; single 200 mg (n = 6)): 0 number of subjects (%)
Oropharyngeal pain (TEAE) ([2]; single 200 mg (n = 6)): 0 number of subjects (%)
Respiratory, thoracic, and mediastinal disorders (TEAE) ([2]; single 200 mg (n = 6)): 0 number of subjects (%)
Somnolence (TEAE) ([2]; single 200 mg (n = 6)): 0 number of subjects (%)
Torticollis (TEAE) ([2]; single 200 mg (n = 6)): 0 number of subjects (%)
Urethritis chlamydial (TEAE) ([2]; single 200 mg (n = 6)): 0 number of subjects (%)
Vascular disorders (TEAE) ([2]; single 200 mg (n = 6)): 0 number of subjects (%)
Any TEAE ([2]; single 400 mg (n = 6)): 3 (50.0) number of subjects (%)
Dizziness (TEAE) ([2]; single 400 mg (n = 6)): 0 number of subjects (%)
Gastrointestinal disorders (TEAE) ([2]; single 400 mg (n = 6)): 1 (16.7) number of subjects (%)
Headache (TEAE) ([2]; single 400 mg (n = 6)): 1 (16.7) number of subjects (%)
Hot flush (TEAE) ([2]; single 400 mg (n = 6)): 1 (16.7) number of subjects (%)
Infections and infestations (TEAE) ([2]; single 400 mg (n = 6)): 0 number of subjects (%)
Musculoskeletal and connective tissue disorders (TEAE) ([2]; single 400 mg (n = 6)): 1 (16.7) number of subjects (%)
Nausea (TEAE) ([2]; single 400 mg (n = 6)): 1 (16.7) number of subjects (%)
Nervous system disorders (TEAE) ([2]; single 400 mg (n = 6)): 1 (16.7) number of subjects (%)
Oropharyngeal pain (TEAE) ([2]; single 400 mg (n = 6)): 0 number of subjects (%)
Respiratory, thoracic, and mediastinal disorders (TEAE) ([2]; single 400 mg (n = 6)): 0 number of subjects (%)
Somnolence (TEAE) ([2]; single 400 mg (n = 6)): 0 number of subjects (%)
Torticollis (TEAE) ([2]; single 400 mg (n = 6)): 1 (16.7) number of subjects (%)
Urethritis chlamydial (TEAE) ([2]; single 400 mg (n = 6)): 0 number of subjects (%)
Vascular disorders (TEAE) ([2]; single 400 mg (n = 6)): 1 (16.7) number of subjects (%)
Any TEAE ([2]; single 600 mg (n = 6)): 0 number of subjects (%)
Dizziness (TEAE) ([2]; single 600 mg (n = 6)): 0 number of subjects (%)
Gastrointestinal disorders (TEAE) ([2]; single 600 mg (n = 6)): 0 number of subjects (%)
Headache (TEAE) ([2]; single 600 mg (n = 6)): 0 number of subjects (%)
Hot flush (TEAE) ([2]; single 600 mg (n = 6)): 0 number of subjects (%)
Infections and infestations (TEAE) ([2]; single 600 mg (n = 6)): 0 number of subjects (%)
Musculoskeletal and connective tissue disorders (TEAE) ([2]; single 600 mg (n = 6)): 0 number of subjects (%)
Nausea (TEAE) ([2]; single 600 mg (n = 6)): 0 number of subjects (%)
Nervous system disorders (TEAE) ([2]; single 600 mg (n = 6)): 0 number of subjects (%)
Oropharyngeal pain (TEAE) ([2]; single 600 mg (n = 6)): 0 number of subjects (%)
Respiratory, thoracic, and mediastinal disorders (TEAE) ([2]; single 600 mg (n = 6)): 0 number of subjects (%)
Somnolence (TEAE) ([2]; single 600 mg (n = 6)): 0 number of subjects (%)
Torticollis (TEAE) ([2]; single 600 mg (n = 6)): 0 number of subjects (%)
Urethritis chlamydial (TEAE) ([2]; single 600 mg (n = 6)): 0 number of subjects (%)
Vascular disorders (TEAE) ([2]; single 600 mg (n = 6)): 0 number of subjects (%)
Any TEAE ([2]; single 800 mg (n = 6)): 5 (83.3) number of subjects (%)
Dizziness (TEAE) ([2]; single 800 mg (n = 6)): 1 (16.7) number of subjects (%)
Gastrointestinal disorders (TEAE) ([2]; single 800 mg (n = 6)): 2 (33.3) number of subjects (%)
Headache (TEAE) ([2]; single 800 mg (n = 6)): 1 (16.7) number of subjects (%)
Hot flush (TEAE) ([2]; single 800 mg (n = 6)): 0 number of subjects (%)
Infections and infestations (TEAE) ([2]; single 800 mg (n = 6)): 0 number of subjects (%)
Musculoskeletal and connective tissue disorders (TEAE) ([2]; single 800 mg (n = 6)): 0 number of subjects (%)
Nausea (TEAE) ([2]; single 800 mg (n = 6)): 2 (33.3) number of subjects (%)
Nervous system disorders (TEAE) ([2]; single 800 mg (n = 6)): 3 (50.0) number of subjects (%)
Oropharyngeal pain (TEAE) ([2]; single 800 mg (n = 6)): 2 (33.3) number of subjects (%)
Respiratory, thoracic, and mediastinal disorders (TEAE) ([2]; single 800 mg (n = 6)): 2 (33.3) number of subjects (%)
Somnolence (TEAE) ([2]; single 800 mg (n = 6)): 1 (16.7) number of subjects (%)
Torticollis (TEAE) ([2]; single 800 mg (n = 6)): 0 number of subjects (%)
Urethritis chlamydial (TEAE) ([2]; single 800 mg (n = 6)): 0 number of subjects (%)
Vascular disorders (TEAE) ([2]; single 800 mg (n = 6)): 0 number of subjects (%)
inhibition of CYP2C9 (CYP2C9 [3]): weak inhibition
